Results published in US20240327408A1, “COMPOUNDS CONTAINING TETRAHYDRONAPHTHYRIDINONE OR TETRAHYDROPYRIDOPYRIMIDINONE SKELETON, PREPARATION METHOD THEREFOR AND PHARMACEUTICAL USE THEREOF” (CHINA PHARMACEUTICAL UNIVERSITY, priority 2021, published 2024).

What was measured:
hClpP = target: T1, hClpP (Homo sapiens, UniProt Q16740); assay: activating ClpP hydrolysis of FITC-casein (fluorescence kinetic detection); type: biochemical; settings: hClpP 1 μM, FITC-Casein 4 μM, 37° C.
T1 construct: made in house
How it was run: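 hClpP at 1 μM final preincubated with compounds (assay-buffer dilutions 200 μM–2 nM, before mixing) 30 min at 37 °C, then 4 μM final FITC-casein added. Fluorescence read kinetically at 37 °C every 1 min for 15 min, duplicate wells.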

MV4; 11 cells = assay: inhibiting the growth of MV4; 11 cells; type: cell-based; settings: Homo sapiens

T1 sequence (Q16740 57-277): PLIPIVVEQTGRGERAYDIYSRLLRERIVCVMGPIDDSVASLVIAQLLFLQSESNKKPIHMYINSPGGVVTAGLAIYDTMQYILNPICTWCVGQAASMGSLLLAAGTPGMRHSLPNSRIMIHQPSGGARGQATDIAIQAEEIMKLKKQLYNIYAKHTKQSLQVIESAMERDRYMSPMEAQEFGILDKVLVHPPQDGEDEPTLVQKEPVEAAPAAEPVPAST

Compound | EC50 (hClpP) [nM] | IC50 (MV4; 11 cells) [nM]
Cc1ccc(Cn2c(=O)c3c(c4cccnc42)CCN(Cc2ccccc2)C3)cc1 [Compound I-55, 3-benzyl-6-(4-methylbenzyl)-2,3,4,6-tetrahydropyrido[3,4-c][1,8]naphthyridine-5-(1H)-one] | < 1000 | < 1000
O=c1c2c(c3cccnc3n1Cc1ccncc1)CCN(Cc1ccccc1)C2 [Compound I-63, 3-benzyl-6-(pyridin-4-ylmethyl)-2,3,4,6-tetrahydropyrido[3,4-c][1,8]naphthyridine-5-(1H)-one] | 10000 to 100000 | 1000 to 10000
O=c1c2c(n3ccnc3n1Cc1ccc(C(F)(F)F)cc1)CCN(Cc1cccc(F)c1)C2 [Compound I-128, 7-(3-fluorobenzyl)-4-(4-trifluoromethylbenzyl)-6,7,8,9-tetrahydroimidazo[1,2-a]pyrido[3,4-e]pyrimidine-5(4H)-one] | < 1000 | < 1000
Cn1cncc1Cn1c(=O)c2c(c3cccnc31)CCN(Cc1ccccc1)C2 [Compound I-67, 3-benzyl-6-((1-methyl-1H-imidazol-5-yl)methyl)-2,3,4,6-tetrahydropyrido[3,4-c][1,8]naphthyridine-5-(1H)-one] | 10000 to 100000 | 1000 to 10000
CCc1ccc(Cn2c(=O)c3c(c4cccnc42)CCN(Cc2cccc(Cl)c2)C3)cc1 [Compound I-96, 6-(4-ethylbenzyl)-3-(3-chlorobenzyl)-2,3,4,6-tetrahydropyrido[3,4-c][1,8]naphthyridine-5-(1H)-one] | < 1000 | < 1000
O=c1c2c(n3ccnc3n1Cc1ccc(Cl)cc1)CCN(Cc1ccccc1)C2 [Compound I-117, 7-benzyl-4-(4-chlorobenzyl)-6,7,8,9-tetrahydroimidazo[1,2-a]pyrido[3,4-e]pyrimidine-5(4H)-one] | < 1000 | < 1000
O=c1c2c(c3cccnc3n1CC1CCC1)CCN(Cc1ccccc1)C2 [Compound I-37, 3-benzyl-6-(cyclobutylmethyl)-2,3,4,6-tetrahydropyrido[3,4-c][1,8]naphthyridine-5-(1H)-one] | 10000 to 100000 | 1000 to 10000
Cc1ncc(Cn2c(=O)c3c(c4cccnc42)CCN(Cc2ccccc2)C3)s1 [Compound I-69, 3-benzyl-6-((2-methylthiazol-5-yl)methyl)-2,3,4,6-tetrahydropyrido[3,4-c][1,8]naphthyridine-5-(1H)-one] | 10000 to 100000 | 1000 to 10000
CNc1ccc(Cn2c(=O)c3c(c4cccnc42)CCN(Cc2cccc(C#N)c2)C3)cc1 [Compound I-89, 6-(4-methylaminobenzyl)-3-(3-cyanobenzyl)-2,3,4,6-tetrahydropyrido[3,4-c][1,8]naphthyridine-5-(1H)-one] | 1000 to 10000 | 1000 to 10000
CCc1ccc(CN2CCc3c(c(=O)n(Cc4ccccc4)c4ncccc34)C2)cc1 [Compound I-22, 6-benzyl-3-(4-ethylbenzyl)-2,3,4,6-tetrahydropyrido[3,4-c][1,8]naphthyridine-5-(1H)-one] | 1000 to 10000 | < 1000
Cc1cccc(CN2CCc3c(c(=O)n(Cc4ccccc4)c4ncccc34)C2)c1 [Compound I-15, 6-benzyl-3-(3-methylbenzyl)-2,3,4,6-tetrahydropyrido[3,4-c][1,8]naphthyridine-5-(1H)-one] | < 1000 | < 1000
Cc1cccc(Cn2c(=O)c3c(c4cccnc42)CCN(Cc2ccccc2)C3)c1 [Compound I-49, 3-benzyl-6-(3-methylbenzyl)-2,3,4,6-tetrahydropyrido[3,4-c][1,8]naphthyridine-5-(1H)-one] | < 1000 | < 1000
O=c1c2c(c3cccnc3n1CC1CCCC1)CCN(Cc1ccccc1)C2 [Compound I-38, 3-benzyl-6-(cyclopentylmethyl)-2,3,4,6-tetrahydropyrido[3,4-c][1,8]naphthyridine-5-(1H)-one] | 10000 to 100000 | 1000 to 10000
O=c1c2c(c3cccnc3n1Cc1ccccc1)CCN(Cc1ccncc1)C2 [Compound I-29, 6-benzyl-3-(pyridin-4-ylmethyl)-2,3,4,6-tetrahydropyrido[3,4-c][1,8]naphthyridine-5-(1H)-one] | 10000 to 100000 | 1000 to 10000
O=c1c2c(c3cccnc3n1Cc1ccccc1)CCN(Cc1ccc(F)cc1)C2 [Compound I-18, 6-benzyl-3-(4-fluorobenzyl)-2,3,4,6-tetrahydropyrido[3,4-c][1,8]naphthyridine-5-(1H)-one] | 1000 to 10000 | < 1000
Cc1cccc(CN2CCc3c(c(=O)n(Cc4ccccc4)c4ccnn34)C2)c1 [Compound I-158, 4-benzyl-7-(3-methylbenzyl)-6,7,8,9-tetrahydropyrazolo[1,5-a]pyrido[3,4-e]pyrimidine-5(4H)-one] | 1000 to 10000 | 1000 to 10000
O=c1c2c(c3ccccc3n1Cc1ccc(C(F)(F)F)cc1)CCN(Cc1ccccc1)C2 [Compound I-80, 3-benzyl-6-(4-(trifluoromethyl)benzyl)-2,3,4,6-tetrahydrobenzo[c][2,7]naphthyridine-5-(1H)-one] | < 1000 | < 1000

Compound | EC50 (hClpP) [nM] | IC50 (MV4; 11 cells) [nM]
O=c1c2c(c3cccnc3n1Cc1ccc(Cl)cc1)CCN(Cc1cccc(Cl)c1)C2 [Compound I-75, 3-(3-chlorobenzyl)-6-(4-chlorobenzyl)-2,3,4,6-tetrahydropyrido[3,4-c][1,8]naphthyridine-5-(1H)-one] | < 1000 | < 1000
CCc1cccc(CN2CCc3c(c(=O)n(Cc4ccccc4)c4ncccc34)C2)c1 [Compound I-16, 6-benzyl-3-(3-ethylbenzyl)-2,3,4,6-tetrahydropyrido[3,4-c][1,8]naphthyridine-5-(1H)-one] | 1000 to 10000 | < 1000
N#Cc1cccc(CN2CCc3c(c(=O)n(Cc4ccc(F)cc4F)c4nccn34)C2)c1 [Compound I-126, 7-(3-cyanobenzyl)-4-(2,4-difluorobenzyl)-6,7,8,9-tetrahydroimidazo[1,2-a]pyrido[3,4-e]pyrimidine-5(4H)-one] | < 1000 | < 1000
Cn1ccnc1CN1CCc2c(c(=O)n(Cc3ccccc3)c3ncccc23)C1 [Compound I-31, 6-benzyl-3-((1-methyl-1H-imidazol-2-yl)methyl)-2,3,4,6-tetrahydropyrido[3,4-c][1,8]naphthyridine-5-(1H)-one] | 10000 to 100000 | 1000 to 10000
Cn1ccnc1Cn1c(=O)c2c(c3cccnc31)CCN(Cc1ccccc1)C2 [Compound I-65, 3-benzyl-6-((1-methyl-1H-imidazol-2-yl)methyl)-2,3,4,6-tetrahydropyrido[3,4-c][1,8]naphthyridine-5-(1H)-one] | 10000 to 100000 | 1000 to 10000
Cn1ccc(CN2CCc3c(c(=O)n(Cc4ccccc4)c4ncccc34)C2)n1 [Compound I-24, 6-benzyl-3-((1-methyl-1H-pyrazol-3-yl)methyl)-2,3,4,6-tetrahydropyrido[3,4-c][1,8]naphthyridine-5-(1H)-one] | 10000 to 100000 | 1000 to 10000
CCc1ccccc1Cn1c(=O)c2c(c3cccnc31)CCN(Cc1ccccc1)C2 [Compound I-44, 3-benzyl-6-(2-ethylbenzyl)-2,3,4,6-tetrahydropyrido[3,4-c][1,8]naphthyridine-5-(1H)-one] | 1000 to 10000 | < 1000
Cc1ccccc1Cn1c(=O)c2c(n3ccnc13)CCN(Cc1ccccc1)C2 [Compound I-106, 7-benzyl-4-(2-methylbenzyl)-6,7,8,9-tetrahydroimidazo[1,2-a]pyrido[3,4-e]pyrimidine-5(4H)-one] | 1000 to 10000 | 1000 to 10000
O=c1c2c(n3ccnc3n1Cc1ccccc1)CCN(Cc1cccc(F)c1)C2 [Compound I-108, 7-(3-fluorobenzyl)-4-benzyl-6,7,8,9-tetrahydroimidazo[1,2-a]pyrido[3,4-e]pyrimidine-5(4H)-one] | < 1000 | < 1000
COc1ccc(Cn2c(=O)c3c(n4ccnc24)CCN(Cc2cccc(C)c2)C3)cc1 [Compound I-145, 7-(3-methylbenzyl)-4-(4-methoxybenzyl)-6,7,8,9-tetrahydroimidazo[1,2-a]pyrido[3,4-e]pyrimidine-5(4H)-one] | < 1000 | < 1000
O=c1c2c(c3cccnc3n1CC1CC1)CCN(Cc1ccccc1)C2 [Compound I-36, 3-benzyl-6-(cyclopropylmethyl)-2,3,4,6-tetrahydropyrido[3,4-c][1,8]naphthyridine-5-(1H)-one] | 10000 to 100000 | 1000 to 10000
Cc1cccc(CN2CCc3c(c(=O)n(Cc4ccccc4)c4nccn34)C2)c1 [Compound I-110, 7-(3-methylbenzyl)-4-benzyl-6,7,8,9-tetrahydroimidazo[1,2-a]pyrido[3,4-e]pyrimidine-5(4H)-one] | < 1000 | < 1000
O=c1c2c(n3ccnc3n1Cc1ccc(F)cc1)CCN(Cc1cccc(F)c1)C2 [Compound I-113, 7-(3-fluorobenzyl)-4-(4-fluorobenzyl)-6,7,8,9-tetrahydroimidazo[1,2-a]pyrido[3,4-e]pyrimidine-5(4H)-one] | < 1000 | < 1000
Cn1nccc1Cn1c(=O)c2c(c3cccnc31)CCN(Cc1ccccc1)C2 [Compound I-59, 3-benzyl-6-((1-methyl-1H-pyrazol-5-yl)methyl)-2,3,4,6-tetrahydropyrido[3,4-c][1,8]naphthyridine-5-(1H)-one] | 10000 to 100000 | 1000 to 10000
O=c1c2c(n3ncnc3n1Cc1ccc(C(F)(F)F)cc1)CCN(Cc1cccc(Cl)c1)C2 [Compound I-150, 4-(4-trifluoromethylbenzyl)-7-(3-chlorobenzyl)-6,7,8,9-tetrahydropyrido[3,4-e][1,2,4]triazolo[1,5-a]pyrimidine-5(4H)-one] | 1000 to 10000 | 1000 to 10000
O=c1c2c(n3ccnc3n1Cc1ccc(Cl)cc1)CCN(Cc1cccc(F)c1)C2 [Compound I-118, 7-(3-fluorobenzyl)-4-(4-chlorobenzyl)-6,7,8,9-tetrahydroimidazo[1,2-a]pyrido[3,4-e]pyrimidine-5(4H)-one] | < 1000 | < 1000
